Test results taken from US8084502B2, “Use of agmatine for protection of retinal ganglion cells” (priority 2007, dated 2011).

Tests used:
Assay type in all cases: cell-based, rat
RGC-5 = assay: LDH assay, hypoxia-induced cell death; settings: for LDH release: relative to maximum LDH release = 100; for concentration at which cell death was reduced significantly (LDH assay): preliminary studies
Protocol: The RGC-5 cell line, which is a RGC line developed from post-natal Sprague-Dawley rats, was grown in modified Dulbecco's Modified Eagle's Medium (DMEM; Gibco) supplemented with 10% of heat inactivated fetal bovine serum (Gibco) and 100 U/mL of penicillin and 100 μg/mL of streptomycin (Gibco). The cells were passaged every 2 to 3 days, and the cultures incubated at 37° C. in 5% of CO2 and air. […] For all experiments, cells were used at an 80% confluence.
Cultures were transferred into a closed hypoxic chamber (Form a Scientific Co.) in which oxygen level (5% of O2, 5% of CO2, 90% of N2) and temperature (37° C.) were controlled. After washing twice with deoxygenated serum-free DMEM, cells were maintained in the hypoxic chamber. Control cells were not exposed to hypoxia. Agmatine or BDNF were added to the culture medium at the start of injury as indicated.
Cell viability was quantified by measurement of LDH released by injured cells after hypoxic or normoxic culture for 12, 24, and 48 hours. LDH release is expressed as a value relative to the value of 100, which represents the maximum LDH release that occurred after freezing of each culture at −70° C. overnight and rapid thawing, which induces nearly complete cell damage. All experiments were performed in at least quadruplicate and repeated at least eight times using cell cultures derived from different platings. The preliminary studies with the LDH assay tested agmatine concentrations from 10 μM to 1 mM and BDNF concentrations from 5 ng/mL to 100 ng/mL.

p38 = assay: Western blot, phospho-p38 in hypoxic RGC-5; settings: agmatine 100 μM, BDNF 10 ng/mL
Protocol: The RGC-5 cell line, which is a RGC line developed from post-natal Sprague-Dawley rats, was grown in modified Dulbecco's Modified Eagle's Medium (DMEM; Gibco) supplemented with 10% of heat inactivated fetal bovine serum (Gibco) and 100 U/mL of penicillin and 100 μg/mL of streptomycin (Gibco). The cells were passaged every 2 to 3 days, and the cultures incubated at 37° C. in 5% of CO2 and air. […] For all experiments, cells were used at an 80% confluence. Cultures were transferred into a closed hypoxic chamber (Form a Scientific Co.) in which oxygen level (5% of O2, 5% of CO2, 90% of N2) and temperature (37° C.) were controlled. […] The protein concentrations in the resultant supernatants were measured with the Bradford reagent, and equal amounts of protein (40 μg) were boiled in Laemmli sample buffer, followed by being resolved by 10 or 15% SDS-PAGE. The proteins were transferred to polyvinylidene fluoride membranes (Immobilon; Millipore, Billerica, Mass.) and then probed overnight with antibodies against JNK, ERK p44/42, p38, NF-κB p65, phospho-JNK, phospho-ERK p44/42, phospho-p38, phospho-NF-κB, (3-actin and histone 3 as indicated (diluted 1:1000). The immunoreactive bands were detected with horseradish peroxidase-conjugated secondary antibodies and visualized by enhanced chemiluminescence.

NF-κB = assay: Western blot, NF-κB in nuclear and cytosolic fraction of hypoxic RGC-5; settings: for increase in phospho-NF-κB, nuclear fraction / increase in total NF-κB expression, cytoplasmic fraction: hypoxia 1 hour; for total NF-κB and histone 3, nuclear fraction: hypoxic RGC-5
Protocol: The RGC-5 cell line, which is a RGC line developed from post-natal Sprague-Dawley rats, was grown in modified Dulbecco's Modified Eagle's Medium (DMEM; Gibco) supplemented with 10% of heat inactivated fetal bovine serum (Gibco) and 100 U/mL of penicillin and 100 μg/mL of streptomycin (Gibco). The cells were passaged every 2 to 3 days, and the cultures incubated at 37° C. in 5% of CO2 and air. […] For all experiments, cells were used at an 80% confluence. Cultures were transferred into a closed hypoxic chamber (Form a Scientific Co.) in which oxygen level (5% of O2, 5% of CO2, 90% of N2) and temperature (37° C.) were controlled. After washing twice with deoxygenated serum-free DMEM, cells were maintained in the hypoxic chamber. Control cells were not exposed to hypoxia. Agmatine or BDNF were added to the culture medium at the start of injury as indicated. For fraction of cytosolic and nuclear proteins, cells were lysed with lysis buffer A (10 mM of HEPES (pH 7.4), 10 mM of KCl, 0.1 mM of EDTA, 0.1 mM of EGTA, 1 mM of DTT, 10 mM of Na3VO4, 50 mM of NaF, 1 mM of PMSF, 1 μg/mL of aprotinin, 1 μg/mL of leupeptin, 1 μg/mL of pepstatin) on ice for 15 minutes, and 10% of NP-40 was then added thereto. After vortexing for 10 seconds, lysates were centrifuged at 15,000 g at 4° C. for 1 minute. The supernatent was collected from the cytosolic fraction. The pellet was resuspended in lysis buffer C (20 mM of HEPES (pH 7.4), 400 mM of NaCl, 1 mM of EDTA, 1% of glycerol, 1 mM of DTT, 10 mM of Na3VO4, 50 mM of NaF, 1 mM of PMSF, 1 μg/mL of aprotinin, 1 μg/mL of leupeptin, 1 μg/mL of pepstatin) on ice for 30 minutes. Lysates were centrifuge at 15,000 g at 4° C. for 15 minutes. The supernatent was collected from the nuclear fraction. The protein concentrations in the resultant supernatants were measured with the Bradford reagent, and equal amounts of protein (40 μg) were boiled in Laemmli sample buffer, followed by being resolved by 10 or 15% SDS-PAGE. The proteins were transferred to polyvinylidene fluoride membranes (Immobilon; Millipore, Billerica, Mass.) and then probed overnight with antibodies against JNK, ERK p44/42, p38, NF-κB p65, phospho-JNK, phospho-ERK p44/42, phospho-p38, phospho-NF-κB, (3-actin and histone 3 as indicated (diluted 1:1000). The immunoreactive bands were detected with horseradish peroxidase-conjugated secondary antibodies and visualized by enhanced chemiluminescence.

N=C(N)NCCCCN [agmatine]
suppression of LDH release compared with BDNF (RGC-5; hypoxia 48 hours, 100 μM of agmatine vs 10 ng/mL BDNF, P<0.001): more effective in suppressing LDH release than 10 ng/mL BDNF | LDH release (RGC-5; hypoxia 48 hours, 100 μM of agmatine): 25.60% | LDH release (RGC-5; hypoxia 48 hours, 500 μM of agmatine): 27.09% | concentration at which cell death was reduced significantly (LDH assay) (RGC-5; tested 10 μM to 1 mM): ≥ 100 µM | expression of phospho-p38 (p38): had no effect | increase in phospho-NF-κB, nuclear fraction (NF-κB): suppressed | increase in total NF-κB expression, cytoplasmic fraction (NF-κB): inhibited | total NF-κB and histone 3, nuclear fraction (NF-κB): no significant changes

BDNF: recombinant human BDNF (R&D System), well-known protective neurotrophin for RGCs, used as comparator
LDH release (RGC-5; hypoxia 48 hours, 10 ng/mL of BDNF): 30.10% | LDH release (RGC-5; hypoxia 48 hours, 50 ng/mL of BDNF): 33.67% | LDH release (RGC-5; hypoxia 48 hours, 100 ng/mL of BDNF): 36.06% | concentration at which cell death was reduced significantly (LDH assay) (RGC-5; tested 5 ng/mL to 100 ng/mL): ≥ 10 ng/mL | expression of phospho-p38 (p38): only blocked the expression of phospho-p38 at 6 hours | increase in phospho-NF-κB, nuclear fraction (NF-κB): not | increase in total NF-κB expression, cytoplasmic fraction (NF-κB): not | total NF-κB and histone 3, nuclear fraction (NF-κB): no significant changes
